Experimental data reported in patent publication US20090047701A1, “METHOD FOR SCREENING ANTIFUNGAL AGENTS” (STICHTING VOOR DE TECHNISCHE, priority 2004, published 2009).

What was measured:
Assay type in all cases: cell-based, Aspergillus niger
[1] = tested on: agsA; assay: Northern analysis of agsA expression after CFW-induced cell wall stress, wild-type strain (N402); conditions: wild-type N402 germlings, 200 μg/ml CFW, RNA at 0, 15, 30, 45 and 60 minutes (FIG. 3)
Procedure: (§1) Cell wall integrity response in the wild-type (N402) and the ΔrlmA strain. Northern analysis of the agsA, and 18S messenger levels. Strains were grown in shake flask until small germ tubes were formed. Subsequently CFW (+) or an equal volume of water (−) was added to the cultures. RNA was extracted at the timepoints indicated above the Northerns, t=time in minutes. The probes used; for agsA a ˜0.6 kb EcoRI agsA fragment was isolated from pGEMT-agsA (Damveld et al, unpublished vector); the 18S ribosomal probe was isolated as a 2 kb BglI fragment from pMN1 (Borsuk et al., 1982 Gene 17, 147-152.)
(§2) Chromosomal DNA of A. niger was isolated as described by Kolar (Kolar et al., 1988, Gene 62, 127-134). Alternatively, chromosomal DNA was isolated using the FastPrep FP120 (Bio101). First, A. niger spores were grown in Fast-prep tubes containing 1 ml CM and 0.3 gram acid washed glass beads. […] Sequencing was carried out with a Perkin Elmer ABI PRISM 310 sequencer using the ABI prism Big Dye Terminator Cycle Sequencing Ready Reaction Kit (Applied Biosystems). […]
(§3) To determine the role of A. niger RlmA in the activation of agsA in response to cell wall stress, the expression of agsA was analysed in both the wild-type strain (N402) and the rlmA deletion strain (ΔrlmA) after CFW treatment. […]

[2] = tested on: agsA; assay: Northern analysis of agsA expression after CFW-induced cell wall stress, rlmA deletion strain (ΔrlmA); conditions: ΔrlmA germlings, 200 μg/ml CFW, RNA at 0, 15, 30, 45 and 60 minutes (FIG. 3)
Procedure: as §1, §2, §3

[3] = tested on: ΔrlmA strain; assay: microtiter plate based growth assay: sensitivity of the ΔrlmA strain versus wild-type (N402); conditions: spores in Complete medium, 37° C., 96-well plates, various concentrations, ΔrlmA vs N402 (FIG. 4)
Procedure: Sensitivity of the ΔrlmA strain towards different compounds. Growth curves of wild-type (N402) and ΔrlmA strains. Spores were grown in Complete medium for 24 hrs at 37° C. in the presence of various concentrations of antifungals. Data are represented as the mean and standard error of the mean obtained from four replicates. The dotted line with open squares represents the growth curve of the rlmA deletion strain and the solid line with closed circles represent the parental (N402) strain.
Sensitivity towards various compounds was assayed in 96-well microtiter plates (Nunc, art. 164588) using a Perkin Elmer HTS-7000 Bioassay reader. A series of concentrations of stress-inducing compounds (CFW, Caspofungin, Hydrogen-peroxide, SDS) were prepared in 100 μl milliq in a 96-well plate, and 100 μl spore solution (˜2×10^4 spores) in 2× complete medium was added to 100 μl stress-inducing solution. The microtiter plates were incubated at 37° C. and the OD590 was measured every 2 hours.
The sensitivity of the wild-type and the ΔrlmA strain towards various compounds was also measured by determining fungal growth in a microtiter plate based growth assay.

Molecule | expression level of the agsA gene after CFW addition [1] | agsA mRNA in the ΔrlmA strain after treatment with CFW [2] | Sensitivity of the ΔrlmA strain towards the compound in comparison to the wild-type strain (fungal growth, OD590) [3]
O=S(=O)(O)c1cc(Nc2nc(Nc3ccccc3)nc(N(CCO)CCO)n2)ccc1/C=C/c1ccc(Nc2nc(Nc3ccccc3)nc(N(CCO)CCO)n2)cc1S(=O)(=O)O [CFW, Calcofluor White] | already induced 15 minutes after CFW addition | no agsA mRNA could be detected | hypersensitive phenotype
CC[C@H](C)C[C@H](C)CCCCCCCCC(=O)N[C@H]1C[C@@H](O)[C@@H](NCCN)NC(=O)[C@@H]2[C@@H](O)CCN2C(=O)[C@H]([C@H](O)CCN)NC(=O)[C@H]([C@H](O)[C@@H](O)c2ccc(O)cc2)NC(=O)[C@@H]2C[C@@H](O)CN2C(=O)[C@H]([C@@H](C)O)NC1=O [Caspofungin] |  |  | slightly, but reproducible enhanced
OO [H2O2, Hydrogen-peroxide] |  |  | no hypersensitive phenotype
CCCCCCCCCCCCOS(=O)(=O)[O-].[Na+] [SDS] |  |  | hypersensitive phenotype
CCCCNC(=O)n1c(NC(=O)OC)nc2ccccc21 [benomyl] |  |  | slightly, but reproducible enhanced
tunicamycin |  |  | slightly, but reproducible enhanced
